{
  "source": "patent US8937063B2",
  "about": "(Trustees of Tufts College, priority 2010, dated 2015)",
  "key": {"[1]": {"assay": "Storage stability of ARI-001 at 50° C., LC-MS", "assay_type": "physicochemical", "conditions": "unregulated humidity", "experimental": "ARI-001 was synthesized as described above. Purity was determined independently before use in experiments by examination via liquid chromatography-mass spectroscopy (LC-MS). A sample of material was dissolved in water/acetonitrile and injected onto a Discovery C-18 reverse phase column. The mobile phase began as 2%:98% acetonitrile:water, which was held for three minutes, after which a linear gradient was started that ran over 6 minutes, increasing the percent of acetonitrile until a final ratio of 98%:2% acetonitrile:water was reached. This final ratio was held for 3 minutes. The major peak was identified as ARI-001.\nStability was determined by storing ARI-001 under 50° C. with no specified humidity requirement. At various time points over the course of 3 months (90 days), a small sample (<5 mg) of ARI-001 was collected for analysis using LC-MS under the same conditions as used for purity determination (vide supra)."}, "rats": {"tested_on": "rats", "assay": "Clinical symptoms of flushing over 28 days", "assay_type": "in vivo", "excerpt": "(§1) Additionally, clinical symptoms of “flushing” were not observed over 28 days in rats or dogs."}, "dogs": {"tested_on": "dogs", "assay": "Clinical symptoms of flushing over 28 days", "assay_type": "in vivo", "excerpt": "as §1"}},
  "data": [
    {"smiles": "O=C(O)c1ccc(CCN2CCOCC2)nc1", "note": "[ARI-001]", "values": [
      {"measurement": "purity remaining on storage", "setting": "[1]; 65 days", "value": 98.9, "unit": "%"},
      {"measurement": "purity remaining on storage", "setting": "[1]; 90 days", "value": 95.9, "unit": "%"},
      {"measurement": "clinical symptoms of flushing", "setting": "rats", "value": "not observed"},
      {"measurement": "clinical symptoms of flushing", "setting": "dogs", "value": "not observed"}
    ]}
  ]
}
